Patent US20230321063A1, “COMPOSITIONS AND METHODS TO REDUCE NEUROINFLAMMATION” (Seattle Children's Hospital d/b/a Seattle Children's …, priority 2020, published 2023)

System: Ndufs4(KO) mice
Assay: Respiratory measurements by whole-body plethysmography
Type: in vivo, mouse
Conditions: 300 mg/kg/day
Description: Respiratory measurements. Breathing parameters were recorded from alert, unrestrained, adult (P60) mice using whole-body plethysmography. Paired 300 ml recording and reference chambers were continuously ventilated (150 ml/min) with either normal air (79% nitrogen and 21% oxygen) or a hypercapnic gas mixture (74% nitrogen, 21% oxygen, and 5% CO2). Pressure differences between the recording and reference chambers were measured (Buxco Respiratory Products) and digitized (Axon Instruments) to visualize respiratory pattern, and simultaneous video recordings were performed to differentiate resting breathing activity from exploratory sniffing and grooming behaviors. Untreated and treated (pexidartinib 300 mg/kg/day) control and Ndufs4(KO) mice were allowed to acclimate to the chambers for 30-40 min prior to acquisition of 35 min of respiratory activity in normal air. The respiratory response to hypercapnia was then tested by ventilating the chambers with hypercapnic gas for 15 min. Respiratory frequency, and breath-to-breath irregularity scores (irreg.score=ABS((N-(N−1))/N)) of frequency and amplitude (peak inspiratory airflow) were quantified during periods of resting breathing (pClamp10 software). During hypercapnic challenges, only data during the final 5 min of the 15 min period were analyzed. […]

SMILES: FC(F)(F)c1ccc(CNc2ccc(Cc3c[nH]c4ncc(Cl)cc34)cn2)cn1 [pexidartinib, 5-[(5-chloro-1H-pyrrolo[2,3-b]pyridin-3-yl)methyl]-N-[[6-(trifluoromethyl)pyridin-3-yl]methyl]pyridin-2-amine]
- respiratory dysfunction in normal air (P60): completely rescued
- respiratory response to increased CO2 (P60, 5% CO2): completely rescued
